Values quoted from earlier work as cited in patent US20230233510A1, “CYSTEINE PROTEASE INHIBITORS FOR USE IN THE PREVENTION AND/OR TREATMENT OF CORONAVIRUS” (ALBERT-LUDWIGS-UNIVERSITÄT FREIBURG, priority 2020, published 2023).

Key:
[1] = tested on: SARS-CoV; details: HeLa cells expressing ACE2 and TMPRSS2
[2] = tested on: human coronavirus NL63 (HCoV-NL63); details: HeLa cells expressing ACE2 and TMPRSS2

For `CN(C)C(=O)COC(=O)Cc1ccc(OC(=O)c2ccc(NC(=N)N)cc2)cc1` [camostat, (4-{2-[2-(Dimethylamino)-2-oxoethoxy]-2-oxoethyl}phenyl)(4-carbamimidamidobenzoate)], the block of infection [1] is given as “partially blocked infection” and the block of infection [2] is given as “partially blocked infection”.
